Values after ≈ are worked out from the molar mass of the structure shown. Residues, ends and D or L forms follow the SMILES beside them.
Tests used:
Escherichia coli [1] = experiment: Antibacterial activity against Escherichia coli assessed as reduction in bacterial growth; assay type: functional
Pseudomonas aeruginosa = experiment: Antibacterial activity against Pseudomonas aeruginosa H103 assessed as reduction in bacterial growth; assay type: functional
[2] = Inhibition of bacterial MraY; set-up: species or system Bacteria
[3] = molecular target: T1, Phospho-N-acetylmuramoyl-pentapeptide-transferase (Bacillus subtilis (strain 168), UniProt Q03521); experiment: Inhibition of Bacillus subtilis MraY
T1 sequence (Q03521 whole entry): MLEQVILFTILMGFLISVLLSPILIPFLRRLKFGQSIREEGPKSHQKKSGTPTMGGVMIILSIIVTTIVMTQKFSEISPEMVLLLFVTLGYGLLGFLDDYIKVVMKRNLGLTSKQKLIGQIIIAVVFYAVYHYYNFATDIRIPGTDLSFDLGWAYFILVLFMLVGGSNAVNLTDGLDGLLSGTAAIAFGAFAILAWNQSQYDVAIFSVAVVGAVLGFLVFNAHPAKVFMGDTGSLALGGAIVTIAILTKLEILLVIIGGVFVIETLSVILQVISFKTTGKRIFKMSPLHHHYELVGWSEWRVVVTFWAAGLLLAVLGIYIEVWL

[4] = molecular target: T2, Phospho-N-acetylmuramoyl-pentapeptide-transferase (Escherichia coli, UniProt E2QF15); experiment: Inhibition of recombinant Escherichia coli MraY by fluorescence based analysis
T2 sequence (E2QF15 whole entry): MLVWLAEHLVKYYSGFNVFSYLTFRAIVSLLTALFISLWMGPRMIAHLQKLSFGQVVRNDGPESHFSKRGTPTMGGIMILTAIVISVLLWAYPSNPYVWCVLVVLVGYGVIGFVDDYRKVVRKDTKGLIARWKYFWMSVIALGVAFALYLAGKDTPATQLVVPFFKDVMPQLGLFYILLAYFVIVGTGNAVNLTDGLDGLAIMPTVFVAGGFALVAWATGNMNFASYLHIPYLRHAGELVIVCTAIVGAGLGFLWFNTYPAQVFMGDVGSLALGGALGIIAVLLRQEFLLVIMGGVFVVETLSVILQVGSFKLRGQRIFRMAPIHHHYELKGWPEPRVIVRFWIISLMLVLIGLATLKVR

Escherichia coli [5] = experiment: Antibacterial activity against Escherichia coli assessed as inhibition of bacterial growth; assay type: functional
[6] = molecular target: T3, Decaprenyl-phosphate N-acetylglucosaminephosphotransferase (Mycolicibacterium smegmatis (strain ATCC 700084 / mc(2)155) (Mycobacteriumsmegmatis), UniProt A0R211); experiment: Inhibition of Mycobacterium smegmatis ATCC 607 WecA
T3 sequence (A0R211 whole entry): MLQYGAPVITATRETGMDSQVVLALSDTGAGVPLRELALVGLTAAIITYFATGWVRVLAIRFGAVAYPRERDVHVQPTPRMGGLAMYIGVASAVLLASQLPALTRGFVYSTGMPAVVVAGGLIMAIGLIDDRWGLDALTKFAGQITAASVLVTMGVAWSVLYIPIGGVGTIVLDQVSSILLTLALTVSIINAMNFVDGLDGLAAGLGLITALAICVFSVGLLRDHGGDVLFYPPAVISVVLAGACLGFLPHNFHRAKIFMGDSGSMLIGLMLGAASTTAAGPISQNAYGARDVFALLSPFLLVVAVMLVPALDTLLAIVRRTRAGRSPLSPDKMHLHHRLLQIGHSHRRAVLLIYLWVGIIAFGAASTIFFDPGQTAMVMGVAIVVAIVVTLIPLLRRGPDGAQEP

[7] = Inhibition of Campylobacter jejuni PgIC expressed in Escherichia coli by affinity chromatography
[8] = Inhibition of Bacillus subtilis TagO

| Compound | MIC (Escherichia coli [1]) [µg/mL] | IC50 [2] [µM] | other results |
| --- | --- | --- | --- |
| CC[C@H](C)[C@H](N)C(=O)N[C@@H](CC(C)C)C(=O)N[C@@H](CCCNC(=N)N)C(=O)N[C@@H](Cc1c[nH]c2ccccc12)C(=O)N1CCC[C@H]1C(=O)N[C@@H](Cc1c[nH]c2ccccc12)C(=O)N[C@@H](Cc1c[nH]c2ccccc12)C(=O)N1CCC[C@H]1C(=O)N[C@@H](Cc1c[nH]c2ccccc12)C(=O)N[C@@H](CCCNC(=N)N)C(=O)N[C@@H](CCCNC(=N)N)C(=O)N[C@@H](CCCCN)C(=O)O (H-ILRWPWWPWRRK-OH) | 38 (≈ 21.3 µM) | 50 | MIC (Pseudomonas aeruginosa): 19 µg/mL (≈ 10.7 µM) |
| CSCC[C@H](N)C(=O)N[C@H](C(=O)N[C@@H](CCCNC(=N)N)C(=O)N[C@@H](Cc1c[nH]c2ccccc12)C(=O)N[C@H](C(=O)N[C@@H](CC(C)C)C(=O)N[C@@H](Cc1c[nH]c2ccccc12)C(=O)N[C@@H](CC(=O)O)C(=O)N[C@H](C(=O)N[C@@H](CC(C)C)C(=O)N[C@@H](C)C(=O)N[C@@H](Cc1ccccc1)C(=O)N[C@@H](CC(C)C)C(=O)N[C@@H](CC(C)C)C(=O)N[C@@H](CC(C)C)C(=O)O)[C@@H](C)O)[C@@H](C)O)C(C)C (H-MVRWTLWDTLAFLLL-OH) |  | 0.8 |  |
| CC(=O)N[C@@H](CCCNC(=N)N)C(=O)N[C@@H](CCCNC(=N)N)C(=O)N[C@@H](Cc1c[nH]c2ccccc12)C(=O)N[C@@H](Cc1c[nH]c2ccccc12)C(=O)N[C@@H](CS)C(=O)N[C@@H](Cc1ccccc1)C(=O)O (Ac-RRWWCF-OH) | 20 (≈ 20.1 µM) |  | MIC (Pseudomonas aeruginosa): 45 µg/mL (≈ 45.2 µM) |
| CC(C)C[C@H](NC(=O)[C@H](Cc1ccccc1)NC(=O)[C@@H]1CCCN1C(=O)[C@H](Cc1c[nH]c2ccccc12)NC(=O)[C@H](Cc1c[nH]c2ccccc12)NC(=O)[C@H](Cc1c[nH]c2ccccc12)NC(=O)[C@@H]1CCCN1C(=O)[C@H](Cc1ccccc1)NC(=O)[C@H](CCCNC(=N)N)NC(=O)[C@H](CCCNC(=N)N)NC(=O)[C@@H](N)C(C)C)C(=O)N[C@@H](CCCNC(=N)N)C(=O)N[C@@H](CCCNC(=N)N)C(=O)O | 20 (≈ 10.5 µM) |  | MIC (Pseudomonas aeruginosa): 1 µg/mL (≈ 0.526 µM) |
| CO[C@@H]1[C@@H](OC)[C@H](C)O[C@@H](OC(=O)C[C@@H](C)CC(=O)O[C@@H](CCCCCCCCCCC(C)C)CC(=O)O[C@H]2CN(C)[C@@H]([C@H](O[C@@H]3O[C@H](CN)[C@@H](O)[C@H]3O)[C@H]3O[C@@H](n4ccc(=O)[nH]c4=O)[C@H](O)[C@@H]3O)C(=O)N(C)[C@@H]2C(=O)O)[C@@H]1OC |  |  | IC50 [3]: 100 µM |
| CC(C)C[C@H](NC(=O)CNC(=O)[C@H](Cc1c[nH]c2ccccc12)NC(=O)[C@@H](N)CCCNC(=N)N)C(=O)NCC(=O)O (H-RWGLG-OH) |  | 274 |  |
| CC(C)[C@H](NC(=O)N[C@H](C(=O)N[C@H](C(=O)NCCCN[C@@H](C[C@H]1O[C@@H](n2ccc(=O)[nH]c2=O)[C@H](O)[C@@H]1O)C(=O)O)[C@@H](O)C(C)C)[C@@H]1CCNC(=N)N1)C(=O)O |  |  | IC50 [4]: 2 µM |
| CC[C@H](C)[C@H](NC(=O)[C@H](Cc1c[nH]c2ccccc12)NC(=O)[C@@H](NC(=O)[C@@H](NC(=O)[C@H](Cc1c[nH]c2ccccc12)NC(=O)[C@H](CCCNC(=N)N)NC(=O)[C@@H](N)CCCNC(=N)N)[C@@H](C)CC)C(C)C)C(=O)N[C@@H](CCCNC(=N)N)C(=O)O (H-RRWIVWIR-OH) |  |  | MIC (Pseudomonas aeruginosa): 8 µg/mL (≈ 6.75 µM); MIC (Escherichia coli [5]): 2 µg/mL (≈ 1.69 µM) |
| CC(C)C[C@H](NC(=O)CNC(=O)CNC(=O)[C@@H](N)CCCNC(=N)N)C(=O)N[C@@H](Cc1c[nH]c2ccccc12)C(=O)O (H-RGGLW-OH) |  | 210 |  |
| CC(C)C[C@H](NC(=O)CNC(=O)[C@H](Cc1c[nH]c2ccccc12)NC(=O)CN)C(=O)N[C@@H](Cc1c[nH]c2ccccc12)C(=O)O (H-GWGLW-OH) |  | 209 |  |
| CSCC[C@H](NC(=O)[C@H](CCCNC(=N)N)NC(=O)[C@H](Cc1c[nH]c2ccccc12)NC(=O)[C@H](CCC(N)=O)NC(=O)[C@H](Cc1c[nH]c2ccccc12)NC(=O)[C@H](CCCNC(=N)N)NC(=O)[C@H](CCCNC(=N)N)NC(=O)[C@H](CS)NC(=O)[C@H](CCCCN)NC(=O)[C@@H](N)CCC(=O)O)C(=O)N[C@@H](CCCCN)C(=O)N[C@@H](CCCCN)C(=O)N[C@@H](CC(C)C)C(=O)NCC(=O)O (H-EKCRRWQWRMKKLG-OH) | 24 (≈ 12.6 µM) |  |  |
| CC(C)[C@H](NC(=O)[C@@H](NC(=O)[C@H](Cc1c[nH]c2ccccc12)NC(=O)[C@H](CCCNC(=N)N)NC(=O)[C@H](Cc1c[nH]c2ccccc12)NC(=O)[C@H](Cc1c[nH]c2ccccc12)NC(=O)[C@H](CCCCN)NC(=O)[C@H](Cc1c[nH]c2ccccc12)NC(=O)[C@H](Cc1c[nH]c2ccccc12)NC(=O)[C@H](CCCCN)NC(=O)CN)[C@@H](C)O)C(=O)N1CCC[C@H]1C(=O)N[C@@H](Cc1ccccc1)C(=O)O (H-GKWWKWWRWTVPF-OH) | 7 (≈ 3.76 µM) |  |  |
| CCCCCCCCOC(=O)[C@H](Cc1c[nH]c2ccccc12)NC(=O)[C@@H](N)CCCNC(=N)N | 31 (≈ 65.6 µM) | > 1000 | MIC (Pseudomonas aeruginosa): 40 µg/mL (≈ 84.6 µM) |
| CC[C@H](C)[C@H](NC(=O)[C@H](CCCCN)NC(=O)[C@H](CCCCN)NC(=O)[C@H](Cc1ccccc1)NC(=O)[C@H](CC(C)C)NC(=O)[C@H](CCCCN)NC(=O)[C@H](Cc1c[nH]c2ccccc12)NC(=O)[C@@H](N)CCCCN)C(=O)N[C@@H](CCC(=O)O)C(=O)N[C@@H](CCCCN)C(=O)O (H-KWKLFKKIEK-OH) | 1 (≈ 0.742 µM) |  | MIC (Pseudomonas aeruginosa): 5 µg/mL (≈ 3.71 µM) |
| CC[C@H](C)[C@H](NC(=O)[C@H](CCCNC(=N)N)NC(=O)[C@H](Cc1c[nH]c2ccccc12)NC(=O)[C@@H](NC(=O)[C@@H](NC(=O)[C@H](CC(C)C)NC(=O)[C@H](Cc1c[nH]c2ccccc12)NC(=O)[C@H](CCCNC(=N)N)NC(=O)[C@H](CCC(N)=O)NC(=O)[C@@H](N)C(C)C)[C@@H](C)CC)C(C)C)C(=O)N[C@@H](CCCNC(=N)N)C(=O)N[C@@H](CCCCN)C(=O)O (H-VQRWLIVWRIRK-OH) |  | 75 | MIC (Escherichia coli [5]): 8 µg/mL (≈ 4.84 µM) |
| CCCCc1ccc(NC(=O)C2=CCN(C)[C@@H]([C@H](O[C@@H]3O[C@H](CN)[C@@H](O)[C@H]3O)[C@H]3O[C@@H](n4ccc(=O)[nH]c4=O)[C@H](O)[C@@H]3O)C(=O)N2C)cc1 |  |  | IC50 [6]: 0.0581 µM |
| CSCC[C@H](NC(=O)N[C@@H](Cc1cccc(O)c1)C(=O)O)C(=O)N[C@@H](C(=O)N/C=C1\C[C@@H](O)[C@H](n2ccc(=O)[nH]c2=O)O1)[C@H](C)N(C)C(=O)[C@@H](N)Cc1cccc(O)c1 |  |  | IC50 [7]: 40 µM |
| N=C(N)NCCC[C@H](N)C(=O)N[C@@H](Cc1c[nH]c2ccccc12)C(=O)NCC(=O)NCC(=O)N[C@@H](Cc1c[nH]c2ccccc12)C(=O)O (H-RWGGW-OH) |  | 233 |  |
| NC[C@H]1O[C@@H](O[C@@H](Cn2cc(CCCCCO)nn2)[C@H]2O[C@@H](n3ccc(=O)[nH]c3=O)[C@H](O)[C@@H]2O)[C@H](O)[C@@H]1O |  |  | IC50 [8]: 0.05 µg/mL (≈ 0.0922 µM) |
| CCCCCCCCOC(=O)[C@H](Cc1c[nH]c2ccccc12)NC(=O)CN |  | 790 |  |
| CC[C@H](C)[C@H](N)C(=O)N[C@@H](CC(C)C)C(=O)N1CCC[C@H]1C(=O)N[C@@H](Cc1c[nH]c2ccccc12)C(=O)N[C@@H](CCCCN)C(=O)N[C@@H](Cc1c[nH]c2ccccc12)C(=O)N1CCC[C@H]1C(=O)N[C@@H](Cc1c[nH]c2ccccc12)C(=O)N[C@@H](Cc1c[nH]c2ccccc12)C(=O)N1CCC[C@H]1C(=O)N[C@@H](Cc1c[nH]c2ccccc12)C(=O)N[C@@H](CCCN=C(N)N)C(=O)N[C@@H](CCCN=C(N)N)C(N)=O |  | 90 |  |
| O=C(O)c1c(Cl)c(Cl)c(Cl)c(Cl)c1-c1c2cc(Br)c(=O)c(Br)c-2oc2c(Br)c(O)c(Br)cc12 |  | 32 | IC50 [3]: 850 µM |

— ChEMBL document CHEMBL5252520, “Inhibition of phospho-MurNAc-pentapeptide translocase (MraY) by nucleoside natural product antibiotics, bacteriophage ϕX174 lysis protein E, and cationic antibacterial peptides” (Bioorg Med Chem, 2016)
